Data as given in patent US8383817B2, “Benztropine compounds and uses thereof” (The United States of America, as represented by the …, priority 2005, dated 2013).

Columns and labels:
[1] = Model For Reducing Effect of Nicotine (nicotine discrimination); format: in vivo, rat; details: rats; dose 1.0 mg/kg; nicotine only control 50%
Source text: Model For Reducing Effect of Nicotine. Food-deprived rats were trained to press one lever for a food pellet after nicotine administration and a second lever after vehicle administration. Pellets of food were delivered intermittently, so that every twentieth response produced food. Using this procedure, the only cue for the rat regarding which lever occasionally pays off with a food pellet, is the subjective effect of the nicotine. When the rats were accurately and reliably identifying the nicotine injections (approximately all of its responses on the lever that occasionally pays off after nicotine or saline), testing began. The rats were pretreated with a compound of Formula III before nicotine injection, and the experiment progressed as described above, except responses on either lever intermittently produced food. A 50% effective nicotine dose was reduced to low levels of effectiveness upon administration of a compound of Formula III.

[2] = Cocaine Discrimination Assay; format: in vivo, rat; details: rats trained to discriminate IP 10 mg/kg cocaine from saline; 80% or higher = full substitution; FIG. 1
[3] = Model For Determining Increase in Attention; format: in vivo, rat; details: rats, five-hole chamber, 40 min session, FIG. 4B
Protocol: Model For Determining Increase in Attention. Rats were trained during daily sessions in a chamber which contained five holes along one wall. When a light came on behind one of the holes, the rat had 5 sec to respond by putting its nose in the hole. If it did this, a food pellet was dispensed. Lights came on for one second randomly in time. Each tenth “correct” response produced a food pellet. The rat had to continuously monitor (attend to) the lights to perform well. The results were measured and illustrated in FIG. 4A. […] The short diagonal marks on the line indicate the occasions on which food pellets were delivered.
Rats were administered a dose of a compound of Formula III, in which R^1 is methyl and R^2 and R^3 are each fluoro. The same task was applied and the number of correct and incorrect responses was measured. The results are depicted in FIG. 4B.

DAT = molecular target: T1, DAT (Rattus norvegicus, UniProt P23977); test: biochemical; format: binding
T1 construct: their brains removed to an ice-cooled dish for dissection of the caudate putamen; from tissue; host or cells: rat caudate putamen homogenate
T1 sequence (P23977 whole entry): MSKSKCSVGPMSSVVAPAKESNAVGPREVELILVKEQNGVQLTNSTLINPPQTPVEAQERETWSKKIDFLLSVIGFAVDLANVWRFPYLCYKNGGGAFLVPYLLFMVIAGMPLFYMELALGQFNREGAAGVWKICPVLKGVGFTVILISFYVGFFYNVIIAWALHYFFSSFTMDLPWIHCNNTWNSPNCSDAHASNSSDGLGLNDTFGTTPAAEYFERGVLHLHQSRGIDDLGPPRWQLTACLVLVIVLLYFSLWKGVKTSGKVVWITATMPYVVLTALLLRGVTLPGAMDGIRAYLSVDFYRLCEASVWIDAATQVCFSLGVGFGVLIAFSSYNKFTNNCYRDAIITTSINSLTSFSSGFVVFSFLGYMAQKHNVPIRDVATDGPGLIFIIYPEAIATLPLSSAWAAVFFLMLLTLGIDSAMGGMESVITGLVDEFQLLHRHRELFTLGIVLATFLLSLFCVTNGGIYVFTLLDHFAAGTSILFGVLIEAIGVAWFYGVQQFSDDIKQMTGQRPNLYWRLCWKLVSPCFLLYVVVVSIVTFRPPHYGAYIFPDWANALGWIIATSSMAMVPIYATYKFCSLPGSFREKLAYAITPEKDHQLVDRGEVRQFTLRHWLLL

NET = molecular target: T2, NET (Rattus norvegicus, UniProt Q9WTR4); format: binding; details: read-out: NET Ki; Table 2
T2 construct: rows headed: NET Ki; NET Ki

SERT = molecular target: T3, SERT (Rattus norvegicus, UniProt P31652); test: [3H]Citalopram Binding Assay, rat midbrain membranes
T3 construct: Membranes from frozen rat midbrain were homogenized; from tissue; host or cells: rat midbrain membranes
T3 sequence (P31652 whole entry): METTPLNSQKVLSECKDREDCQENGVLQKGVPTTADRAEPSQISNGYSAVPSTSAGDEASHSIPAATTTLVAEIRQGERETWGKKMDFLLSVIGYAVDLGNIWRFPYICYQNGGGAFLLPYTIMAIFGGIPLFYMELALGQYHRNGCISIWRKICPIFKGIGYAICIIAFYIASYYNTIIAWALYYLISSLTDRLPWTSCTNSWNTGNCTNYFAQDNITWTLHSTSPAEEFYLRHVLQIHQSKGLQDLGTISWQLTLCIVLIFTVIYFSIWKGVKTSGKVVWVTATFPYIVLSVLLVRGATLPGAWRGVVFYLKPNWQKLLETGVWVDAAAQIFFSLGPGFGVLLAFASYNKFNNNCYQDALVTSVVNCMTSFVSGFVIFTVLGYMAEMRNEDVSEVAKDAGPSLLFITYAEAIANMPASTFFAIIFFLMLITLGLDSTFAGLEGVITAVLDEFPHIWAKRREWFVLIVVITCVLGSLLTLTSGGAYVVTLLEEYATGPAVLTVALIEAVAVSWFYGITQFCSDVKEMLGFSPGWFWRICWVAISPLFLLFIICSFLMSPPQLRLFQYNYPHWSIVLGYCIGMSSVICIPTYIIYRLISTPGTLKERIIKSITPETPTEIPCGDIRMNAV

muscarinic M1 receptor = molecular target: T4, muscarinic M1 receptor (Rattus norvegicus, UniProt P08482); test: [3H]Pirenzepine Binding Assay, rat brain membranes
T4 construct: Membranes from frozen rat brains excluding cerebellum were thawed; from tissue; host or cells: rat brain (excluding cerebellum) membranes
T4 sequence (P08482 1-460): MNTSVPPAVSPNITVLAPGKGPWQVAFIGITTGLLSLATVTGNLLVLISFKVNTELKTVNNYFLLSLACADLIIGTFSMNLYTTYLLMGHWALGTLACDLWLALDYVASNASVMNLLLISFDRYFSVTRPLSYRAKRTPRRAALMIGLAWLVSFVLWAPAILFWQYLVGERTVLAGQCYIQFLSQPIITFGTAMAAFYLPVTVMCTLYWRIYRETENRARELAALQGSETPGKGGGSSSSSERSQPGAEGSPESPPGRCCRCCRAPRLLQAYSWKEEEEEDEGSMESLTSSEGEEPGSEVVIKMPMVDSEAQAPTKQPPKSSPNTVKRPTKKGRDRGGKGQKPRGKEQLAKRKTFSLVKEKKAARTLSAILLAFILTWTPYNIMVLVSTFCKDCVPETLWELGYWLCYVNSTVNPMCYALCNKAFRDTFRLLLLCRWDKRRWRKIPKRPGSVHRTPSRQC

DA uptake = molecular target: T5, DA uptake (Rattus norvegicus, UniProt P23977); test: Dopamine Uptake Assay, [3H]dopamine in synaptosomal tissue preparation; format: biochemical
T5 construct: The synaptosomal tissue preparation was incubated in buffer in glass test tubes at 37° C; from tissue
T5 sequence (P23977 whole entry): as the sequence (P23977 whole entry) above

Row | Structure (SMILES) | Effect (of a 50% effective nicotine dose after pretreatment) [1] [%] | Substitution for cocaine (cocaine-appropriate responding) [2] | Number of correct responses (attention to brief light stimuli) [3] | Ki (DAT) [nM] | Ki (NET) [nM] | Ki (SERT) [nM] | Ki (muscarinic M1 receptor) [nM] | IC50 (DA uptake) [nM]
1 | CN1[C@@H]2CC[C@@H]1CC(OC(c1ccc(F)cc1)c1ccc(F)cc1)C2 (stereo partly shown) [AHN 1-055] | 7.65 | did not fully substitute for cocaine | far greater than before treatment |  |  |  |  | 
2 | COC(=O)[C@@H]1[C@@H](OC(c2ccc(Cl)cc2)c2ccc(Cl)cc2)C[C@H]2CC[C@@H]1N2C [Compound S-14] |  |  |  | 12.6 ± 0.4 | 2150 ± 325 | 528 ± 39 | 382 ± 37 | 2.46 ± 0.2
3 | CCOC(=O)[C@@H]1[C@@H](OC(c2ccc(Cl)cc2)c2ccc(Cl)cc2)C[C@H]2CC[C@@H]1N2C [Compound S-15, S-(+)-2β-Carboethoxy-3α-[bis(4-chlorophenyl)methoxy]tropane] |  |  |  | 14.6 ± 0.39 | 3350 ± 154 | 1560 ± 91 | 3060 ± 150 | 1.52 ± 0.2
